Test results from patent US10780174B2, “Lipid-linked prodrugs” (The University of British Columbia, priority 2015, dated 2020).
“Also recorded” adds a separate entry of the source. Read-outs that look alike come from different tables or passages of the source.

Columns and labels:
[1] = Particle size and polydispersity of LNP containing prodrug (dynamic light scattering); type: physicochemical; conditions: PDI in brackets; for Particle size (PDI) PC-Chol LNP: LD-DEX prodrug in PC-Chol LNP; for Particle size (PDI) [ionizable LNP]: LD-DEX prodrug in ionizable LNP
Procedure: (§1) Preparation of LNP Systems: PC-Chol LNP systems were prepared by rapidly mixing POPC, cholesterol, lipid-linked prodrug and PEG-DMPE (in molar ratio of 49/39/10/2) dissolved in ethanol with phosphate-buffered saline using a T-junction mixer. Formulations were dialyzed against phosphate-buffered saline to remove residual ethanol and to raise the pH to 7.4. PC-TO and ionizable LNP systems were prepared in the same way except that the lipid compositions for these systems are: POPC, triolein, lipid-linked prodrug and PEG-DSPE (in molar ration of 19/70/10/1), and ionizable lipid, DSPC, cholesterol, lipid-linked prodrug and PEG-DMPE (in molar ration of 40/10/38.5/10/1.5), respectively.
Characterization of LNP: Particle size was determined by dynamic light scattering using a Malvern Zetasizer Nano ZS™ (Malvern, UK) following buffer exchange into phosphate-buffered saline. Number-weighted size and distribution data was used. Lipid concentrations were determined by measuring total cholesterol using the Cholesterol E enzymatic assay kit from Wako Chemicals USA™ (Richmond, Va.). The morphology of LNP formulations containing LD-DEX was analyzed by cryogenic-transmission electron microscopy (cryoTEM) as described previously [Leung et al. (2012)].

[2] = system: purified porcine esterase; assay: In vitro degradation of lipid-linked prodrugs in LNP, purified esterase in PBS; conditions: for prodrug degradation over 24 h in purified esterase: LNP, 0, 2, 4 and 24 h; for release of active drug (UPLC chromatogram) in purified esterase: 24 h incubation
[3] = In vitro dissociation of lipid-linked prodrugs from LNP in human plasma; type: in vitro ADME; conditions: human plasma over 24 h, 37° C., PC-Chol LNP or ionizable LNP
Procedure: LNP were incubated for 0, 3, 5 and 24 h at 37° C. in 400 μL of sterile human plasma (Cedarlane™, Burlington, Ontario) at a final lipid concentration of 1.2 mM. At the various time-points, samples were loaded onto a 1.5×27 cm Sepharose CL-4B column (Sigma-Aldrich™, St. Louis, Mo.). 30×2 mL fractions were collected. Three volumes of methanol/acetonitrile (1:1) were added to each fraction and analyzed by UHPLC to determine the residual LD-DEX/DTX as described above.

[4] = Prodrug incorporation (entrapment) in lipid nanoparticles, UHPLC; type: physicochemical; conditions: for % Entrapment PC-Chol LNP: LD-DEX prodrug in PC-Chol LNP; for % Entrapment [ionizable LNP]: LD-DEX prodrug in ionizable LNP
Procedure: as §1
(§2) Quantitation of prodrugs by HPLC: LD-DEX/DTX were quantified by ultra high-pressure liquid chromatography (UHPLC) using a Waters Acquity™ UPLC system equipped with a photodiode array detector (PDA) and evaporative light scattering (ELS) detector; Empower™ data acquisition software version 3.0 was used (Waters™, USA). Separations were performed using a Waters Acquity™ BEH C18 column (1.7 μm, 2.1×100 mm) at a flow rate of 0.5 ml/min, with mobile phases A and B consisting of methanol/10 mM ammonium bicarbonate (80/20% v/v) and methanol/acetonitrile (80/20% v/v), respectively. The mobile phases were delivered at a programmed linear gradient (45%-80% B in 1 min then to 99% B at 2 min) at a column temperature of 55° C. The analyte was measured by PDA (at a wavelength of 239 nm) and ELS detector against calibration standard curves. For the analysis of LD-DEX/DTX breakdown to active compound, linear gradients of 20/80% to 100/0% (acetonitrile/water, v/v) over 7 min were used.

[5] = In vitro degradation of lipid-linked prodrugs in LNP, mouse plasma; type: in vitro ADME; conditions: for prodrug degradation over 24 h in mouse plasma: LNP, 0, 2, 4 and 24 h; for prodrug cleavage/degradation after 1 h in plasma: 37° C., mouse plasma; for release of active drug (UPLC chromatogram) in mouse plasma: 24 h incubation
Procedure: as §2
To determine the biodegradability of the dexamethasone or docetaxel prodrugs (LD-DEX/DTX), 1 mg/mL LNP was incubated in mouse plasma (Cedarlane™, Burlington, Ontario) or PBS supplemented with 10 U of purified esterase (Sigma-Aldrich™, St. […] Post incubation, four volumes of chloroform/methanol (2:1) was added and the mixture was vortex mixed. Samples were centrifuged at 13,000 g for 5 minutes and the upper phase was discarded. The remaining organic phase was dried down under vacuum and the resulting lipid extract was dissolved in methanol/acetonitrile (1:1). Quantity of parent LD-DEX/DTX compound was determined by ultra high pressure liquid chromatography on a Waters Acquity™ H-Class UPLC System™ equipped with a BEH C18 column and a photodiode array detector.

[6] = system: immunostimulatory effects of LNP-CpG (plasma cytokines); assay: In vivo immune suppression by LD-DEX prodrugs, LNP-CpG model; set-up: species or system C57Bl/6 mice; conditions: mice, i.v., 10 mg/kg of CpG, 2 h post injection
Procedure: (§3) 6-8 Weeks old female C57Bl/6 mice (Charles River Laboratories™, Wilmington, Mass.) were injected intravenously with lipid nanoparticles containing CpG DNA oligonucleotides (10 mg/kg), mRNA (3 mg/kg) or plasmid DNA (pDNA) (1 mg/kg). Animals were euthanized 2 hours post-injection and blood was collected via intracardiac or saphenous sampling. Plasma was separated from whole blood by centrifugation and analyzed for proinflammatory cytokines using the Mesoscale Proinflammatory Multiplex™ kit (Rockville, Md.) according to manufacturer's instruction. All procedures were approved by the Animal Care Committee at the University of British Columbia and were performed in accordance with guidelines established by the Canadian Council on Animal Care.

[7] = system: IL1β expression in RAW 264.7 mouse macrophage cells; assay: In vitro immune suppression, LPS-treated RAW 264.7 cells, IL1β qRT-PCR; type: cell-based; conditions: 2 ng/mL LPS, 4 h
Procedure: RAW 264.7 mouse macrophage cells were seeded at 250,000 cells per mL on 12-well plates and incubated at 37° C. overnight. Lipopolysaccharide (LPS) was dissolved in phosphate buffered saline at a concentration of 2 μg/ml. Cells were treated with lipid nanoparticles containing LD-DEX prodrugs and 2 ng/ml of LPS for 4 hours. This LPS concentration was chosen due to its ability to increase IL1β expression approximately 1000 times as compared to untreated cells. At the end of the incubation period, culture medium was aspirated and cellular RNA was extracted using the Purelink RNA™ extraction kit according to manufacturer's protocol (Life Technologies™, Burlington, ON). The concentration of extracted RNA was determined using a Nanodrop Lite™ (Thermo Fisher™). 1 μg of RNA was converted to cDNA using the High Capacity cDNA Reverse Transcription kit (Life Technologies™, Burlington, ON). In order to validate the sample preparation, a no template control and a negative reverse transcriptase control were included. The cDNA was then quantified using comparative real-time qPCR where the Ct (threshold cycle) values are converted to relative quantity using the 2-ΔΔCT method. The primer-probe sets were designed to bind to cDNA of Interleukin-1β(IL1β). Hypoxanthine-guanine phosphoribosyltransferase (HPRT) was chosen as the endogenous normalizer gene, which is known to maintain consistent levels with varying treatments.

[8] = system: immunostimulatory effects of LNP-mRNA (plasma cytokines); assay: In vivo immune suppression by LD-DEX prodrugs, LNP-mRNA model; set-up: species or system C57Bl/6 mice; conditions: mice, 3 mg/kg of mRNA, 2 h post injection
Procedure: as §3

[9] = system: immunostimulatory effects of LNP-pDNA (plasma cytokines); assay: In vivo immune suppression by LD-DEX prodrugs, LNP-pDNA model; set-up: species or system C57Bl/6 mice; conditions: mice, i.v., 1 mg/kg of pDNA, 2 h post injection
Procedure: as §3

[10] = system: purified porcine esterase; conditions: pig, 1 mg/mL LNP
[11] = system: OVCAR3 cells; assay: In vitro growth inhibition by LD-DTX prodrugs, cell viability assay; type: cell-based; conditions: Homo sapiens, OVCAR-3, 48 h, Ovcar3 cells
Procedure: OVCAR3 cells were obtained from ATCC (Manassas, Va.). Cells were seeded at 12,000 cells per well on 96-well plates and treated with free docetaxel, prodrugs, lipid nanoparticle formulations with or without prodrugs at 0 to 15 μM of docetaxel for 48 h. Cell viability was determined by a colorimetric assay, based on the tetrazolium salt MIT (3-(4,5-dimethylthiazol-2-yl)-2,5-diphenyltetrazolium bromide), as described previously [Mossman 1983].

Compound	Particle size (PDI) PC-Chol LNP [1]	Particle size (PDI) [ionizable LNP] [1]	prodrug degradation over 24 h in purified esterase [2]	release of active drug (UPLC chromatogram) in purified esterase ([2]; LNP)	prodrug dissociation rate from LNP [3]	% Entrapment PC-Chol LNP [4] [%]	% Entrapment [ionizable LNP] [4]	prodrug degradation over 24 h in mouse plasma [5]	prodrug cleavage/degradation after 1 h in plasma ([5]; LNP)	release of active drug (UPLC chromatogram) in mouse plasma ([5]; LNP)	plasma TNFα and KC/GRO levels versus control LNP-CpG [6]	further results
CCCCC/C=C\C/C=C\CCCCCCCC(=O)OC[C@H](COC(=O)CCC(=O)OCC(=O)[C@@]1(O)[C@H](C)C[C@H]2[C@@H]3CCC4=CC(=O)C=C[C@]4(C)[C@@]3(F)[C@@H](O)C[C@@]21C)OC(=O)CCCCCCC/C=C\C/C=C\CCCCC [LD02-DEX, 2,3-dilinoleoyloxypropyl (2-((8S,9R,10S,11S,13S,14S,16R,17R)-9-fluoro-11,17-dihydroxy-10,13,16-trimethyl-3-oxo-6,7,8,9,10,11,12,13,14,15,16,17-dodecahydro-3H-cyclopenta[a]phenanthren-17-yl)-2-oxoethyl) succinate]	53 (0.05) nm	[49 (0.05)] nm	progressively degraded	a peak corresponding to active dexamethasone (DEX) appeared	dissociated from lipid nanoparticles at a slower rate than LD03-DEX	100	[99] %	progressively degraded	virtually no degradation	a peak corresponding to active dexamethasone (DEX) appeared	marked reduction in cytokine levels	prodrug dissociation rate from LNP ([3]; listed as LD02): dissociates from LNP at a slower rate than that of LD03
CCCCC/C=C\C/C=C\CCCCCCCCOC(=O)CCC(=O)OCC(=O)[C@@]1(O)[C@H](C)C[C@H]2[C@@H]3CCC4=CC(=O)C=C[C@]4(C)[C@@]3(F)[C@@H](O)C[C@@]21C [LD03-DEX, linoleyl 2-((8S,9R,10S,11S,13S,14S,16R,17R)-9-fluoro-11,17-dihydroxy-10,13,16-trimethyl-3-oxo-6,7,8,9,10,11,12,13,14,15,16,17-dodecahydro-3H-cyclopenta[a]phenanthren-47-yl)-2-oxoethyl succinate]	64 (0.06) nm	[48 (0.04)] nm	progressively degraded	a peak corresponding to active dexamethasone (DEX) appeared	–	94	[100] %	progressively degraded; also recorded: degraded at a faster rate than LD02-DEX	significant cleavage	a peak corresponding to active dexamethasone (DEX) appeared	marked reduction in cytokine levels	prodrug cleavage in PBS containing isolated esterases ([2]; LNP, 1 or 4 h incubation): progressive prodrug cleavage; IL1β expression versus control LNP without prodrug [7]: able to reduce IL1β expression; plasma cytokine levels versus control LNP-mRNA ([8]; 3 mg/kg): significantly reduced levels; plasma cytokine levels versus control LNP-mRNA ([8]; listed as LD03, 3 mg/kg): suppresses the immunostimulatory effects of LNP-mRNA; plasma cytokine levels versus control LNP-pDNA ([9]; 1 mg/kg): efficiently suppressed cytokine levels; plasma cytokine levels versus control LNP-pDNA ([9]; listed as LD03, 1 mg/kg): suppresses the immunostimulatory effects of LNP-pDNA; prodrug cleavage in plasma ([5]; LNP, 1 or 4 h incubation in plasma): progressive prodrug cleavage; prodrug degradation over 24 h in purified esterase [10]: degraded at a faster rate than LD02-DEX
CCCCCCCC/C=C\CCCCCCCCOC(=O)CCC(=O)O[C@@H](C(=O)O[C@H]1C[C@@]2(O)[C@@H](OC(=O)c3ccccc3)[C@@H]3[C@]4(OC(C)=O)CO[C@@H]4C[C@H](O)[C@@]3(C)C(=O)[C@H](O)C(=C1C)C2(C)C)[C@@H](NC(=O)OC(C)(C)C)c1ccccc1 [LD18-DTX, (2R,3S)-1-(((2aR,4S,4aS,6R,9S,11S,12S,12aR,12bS)-12b-acetoxy-12-(benzoyloxy)-4,6,11-trihydroxy-4a,8,13,13-tetramethyl-5-oxo-2a,3,4,4a,5,6,9,10,11,12,12a,12b-dodecahydro-1H-7,11-methanocyclodeca[3,4]benzo[1,2-b]oxet-9-yl)oxy)-3-((tert-butoxycarbonyl)amino)-1-oxo-3-phenylpropan-2-yl(Z)-octadec-9-en-1-ylsuccinate]	–	–	–	active docetaxel (DTX) was observed	dissociated at a faster rate from lipid nanoparticles than LD22-DTX	–	–	–	largely not degraded	active docetaxel (DTX) was observed	–	IC50 ([11]; Free drugs): 23.9 nM; IC50 ([11]; PC-Chol LNP): 37.3 nM; IC50 ([11]; PC-TO LNP): 131 nM; IC50 ([11]; ionizable LNP): 64 nM; prodrug dissociation rate from LNP ([3]; listed as LD18): dissociates from LNP faster than LD22
